Structures are written as SMILES. Some results are limits rather than exact numbers.

In the first experiment the target is T1, PRMT5/MEP50 (Homo sapiens, UniProt O14744).
T1 construct: Expressed full-length human Flag-PRMT5/6His-MeP50 protein complex was purified; made in house; host or cells: Spodoptera frugiperda (SF9) insect cells, baculovirus (pDEST8)
T1 sequence (O14744 with tags, fused parts or gaps): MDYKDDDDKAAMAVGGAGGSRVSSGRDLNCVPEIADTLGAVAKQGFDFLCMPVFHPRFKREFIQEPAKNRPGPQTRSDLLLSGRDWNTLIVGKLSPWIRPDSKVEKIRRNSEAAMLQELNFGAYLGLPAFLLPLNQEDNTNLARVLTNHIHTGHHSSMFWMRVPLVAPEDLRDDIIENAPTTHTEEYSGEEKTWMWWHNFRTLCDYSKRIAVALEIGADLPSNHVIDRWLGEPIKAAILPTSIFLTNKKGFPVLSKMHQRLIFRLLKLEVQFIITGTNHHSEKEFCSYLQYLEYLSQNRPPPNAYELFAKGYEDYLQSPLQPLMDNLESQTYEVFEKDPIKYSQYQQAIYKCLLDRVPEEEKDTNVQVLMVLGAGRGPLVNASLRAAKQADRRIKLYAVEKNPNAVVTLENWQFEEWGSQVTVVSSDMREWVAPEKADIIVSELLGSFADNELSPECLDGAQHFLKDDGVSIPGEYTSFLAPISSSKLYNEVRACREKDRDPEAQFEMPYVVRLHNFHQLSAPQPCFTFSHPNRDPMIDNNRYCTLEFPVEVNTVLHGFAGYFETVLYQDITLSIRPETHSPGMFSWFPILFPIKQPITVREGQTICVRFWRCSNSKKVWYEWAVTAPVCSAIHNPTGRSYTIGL
T1 sequence (Q9BQA1 with tags, fused parts or gaps partner limits assumed): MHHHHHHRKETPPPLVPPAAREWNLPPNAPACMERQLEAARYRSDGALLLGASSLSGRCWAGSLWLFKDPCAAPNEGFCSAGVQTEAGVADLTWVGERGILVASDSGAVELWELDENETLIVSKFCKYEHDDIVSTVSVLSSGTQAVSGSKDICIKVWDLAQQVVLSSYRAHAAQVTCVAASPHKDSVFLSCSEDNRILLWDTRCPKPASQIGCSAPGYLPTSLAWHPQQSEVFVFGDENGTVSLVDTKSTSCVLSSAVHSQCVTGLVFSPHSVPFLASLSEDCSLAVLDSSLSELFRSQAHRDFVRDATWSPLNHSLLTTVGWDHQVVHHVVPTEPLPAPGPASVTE
Nature of the experiment: PRMT5 Biochemical Assay (PRMT5/MEP50 enzyme assay on peptide substrate, 3H-SAM Flashplate). The following applies: Table A-2; PRMT5/MEP50 4 nM, 3H-SAM 75 nM, peptide 40 nM; read-out: Biochemical IC50.
Usually IC50 stands for the concentration needed to halve the response being measured. Turning to `C[C@H](Oc1cccc2cccnc12)C(=O)NC[C@H](O)CN1CCc2ccccc2C1` [Compound A76], the IC50 was less than 0.1 µM.

For the compound `CN1C(=O)COc2cccc(OCC(=O)NCC(O)CN3CCc4ccccc4C3)c21` (centres unmarked) [Compound A80], the IC50 was less than 0.1 µM.

`CN1CCN(c2ccccc2OCC(=O)NC[C@H](O)CN2CCc3ccccc3C2)CC1` [Compound A84]: the IC50 is less than 0.1 µM.

`O=C(COc1c(CN2CCOCC2)ccc2cccnc12)NC[C@H](O)CN1CCc2ccccc2C1` [Compound A94]: the IC50 was less than 0.1 µM.

`O=C(COc1cccc2c1CCNC2)NCC(O)CN1CCc2ccccc2C1` (centres unmarked) [Compound A91]: the IC50 was less than 0.1 µM.

With `O=C(COc1cccc2nccnc12)NCC(O)CN1CCc2ccccc2C1` (centres unmarked) [Compound A92], the IC50 is less than 0.1 µM.

For `O=C(COc1cccc(NC2CCOCC2)c1)NCC(O)CN1CCc2ccccc2C1` (centres unmarked) [Compound A93], the IC50 is less than 0.1 µM.

`CC(=O)N1CCN(c2ccccc2OCC(=O)NCC(O)CN2CCc3ccccc3C2)CC1` (centres unmarked) [Compound A90]: the IC50 is less than 0.1 µM.

As to `Cn1ncc2c(OCC(=O)NCC(O)CN3CCc4ccccc4C3)cccc21` (centres unmarked) [Compound A82], the 50% inhibitory concentration (IC50) was less than 0.1 µM.

Regarding `CN1CCOc2cccc(OCC(=O)NCC(O)CN3CCc4ccccc4C3)c21` (centres unmarked) [Compound A81], the IC50 is less than 0.1 µM.

Regarding `CN(C)CCOc1ccccc1OCC(=O)NC[C@H](O)CN1CCc2ccccc2C1` [Compound A88], the IC50 was less than 0.1 µM.

For the compound `O=C(COc1ccccc1N1CCOCC1)NC[C@H](O)CN1CCc2ccccc2C1` [Compound A77], the IC50 was less than 0.1 µM.

Take `O=C(COc1ccc2c(cnn2C2CCNC2)c1)NCC(O)CN1CCc2ccccc2C1` (centres unmarked) [Compound A95]: the IC50 is less than 0.1 µM.

Take `O=C(COc1cccc(C(=O)N2CCOCC2)c1)NCC(O)CN1CCc2ccccc2C1` (centres unmarked) [Compound A83]: the IC50 was 0.101 to 1 µM.

In the case of `O=C(COc1cccc(CN2CCOCC2)c1)NCC(O)CN1CCc2ccccc2C1` (centres unmarked) [Compound A75], the IC50 was less than 0.1 µM.

On to `O=C(COc1ccccc1N1CCNCC1)NCC(O)CN1CCc2ccccc2C1` (centres unmarked) [Compound A79], for which the IC50 is less than 0.1 µM.

In the case of `O=C(COc1ccccc1OCCN1CCOCC1)NC[C@H](O)CN1CCc2ccccc2C1` [Compound A86], the IC50 is less than 0.1 µM.

The experiment is the same for the next values; noted with them: Table D-2; read-out: Biochemical IC50.
With `Cn1ccc(C(=O)Nc2cccc(OCC(O)CN3CCc4ccccc4C3)c2)n1` (centres unmarked) [Compound D162], the IC50 was in the range of 1 to 10 µM.

As to `OC(COc1cccc(-c2ccccc2Oc2ccccc2)c1)CN1CCc2ccccc2C1` (centres unmarked) [Compound D167], the IC50 was 0.101 to 1 µM.

Turning to `Cn1cnc2ccc(-c3ccnc(NCC(O)CN4CCc5ccccc5C4)n3)cc21` (centres unmarked) [Compound D119], the IC50 fell in the range of 0.101 to 1 µM.

For the compound `Cc1ccc(F)c(-c2cccc(OCC(O)CN3CCc4ccccc4C3)c2)c1` (centres unmarked) [Compound D138], the IC50 fell in the range of 0.101 to 1 µM.

As for `Cn1ncc2cc(-c3cccc(OCC(O)CN4CCc5ccccc5C4)c3)ccc21` (centres unmarked) [Compound D108], the IC50 is less than 0.1 µM.

As to `OC(COc1cccc(-c2csc3ccccc23)c1)CN1CCc2ccccc2C1` (centres unmarked) [Compound D170], the IC50 lay within 0.101 to 1 µM.

On to `OC(COc1cccc(-c2ccc3ncoc3c2)c1)CN1CCc2ccccc2C1` (centres unmarked) [Compound D188], for which the IC50 lay in the range of 0.101 to 1 µM.

On to `CS(=O)(=O)c1cccc(-c2cccc(OCC(O)CN3CCc4ccccc4C3)c2)c1` (centres unmarked) [Compound D130], for which the IC50 is 0.101 to 1 µM.

As for `COc1ccc(-c2cccc(OCC(O)CN3CCc4ccccc4C3)c2)cc1Cl` (centres unmarked) [Compound D168], the IC50 is 0.101 to 1 µM.

Turning to `OC(COc1cccc(-c2ccc(C(F)(F)F)cc2C(F)(F)F)c1)CN1CCc2ccccc2C1` (centres unmarked) [Compound D124], the IC50 fell in the range of 0.101 to 1 µM.

Regarding `CN(C)c1ccc(-c2cccc(OCC(O)CN3CCc4ccccc4C3)c2)cc1` (centres unmarked) [Compound D151], the IC50 fell in the range of 0.101 to 1 µM.

Turning to `Cn1cnc2ccc(-c3ccnc(NCC(O)CN4CCc5ccccc5C4)c3)cc21` (centres unmarked) [Compound D118], the IC50 was less than 0.1 µM.

Take `Cn1ccc2ccc(-c3cccc(OCC(O)CN4CCc5ccccc5C4)c3)cc21` (centres unmarked) [Compound D147]: the half-maximal inhibitory concentration (IC50) was in the range of 0.101 to 1 µM.

`OC(COc1cccc(-c2ccc3ncn(Cc4ccccc4)c3c2)c1)CN1CCc2ccccc2C1` (centres unmarked) [Compound D105]: the IC50 was less than 0.1 µM.

In the case of `OC(COc1cccc(-c2ccc3[nH]ncc3c2)c1)CN1CCc2ccccc2C1` (centres unmarked) [Compound D107], the half-inhibitory concentration (IC50) is 0.101 to 1 µM.

Consider `CN(CC(O)CN1CCc2ccccc2C1)c1cccc(CNC2CCOCC2)c1` (centres unmarked) [Compound D116], for which the IC50 was less than 0.1 µM.

Turning to `Cn1ncc2ccc(-c3cc(NCC(O)CN4CCc5ccccc5C4)ncn3)cc21` (centres unmarked) [Compound D205], the IC50 lay within 0.101 to 1 µM.

Take `Cn1cnc2ccc(-c3cccc(OC[C@H](O)CN4CCc5ccccc5C4)c3)cc21` [Compound D174]: the IC50 is less than 0.1 µM.

For the compound `OC(COc1cccc(-c2ccc3cnoc3c2)c1)CN1CCc2ccccc2C1` (centres unmarked) [Compound D166], the concentration for half-maximal inhibition (IC50) lay in the range of 1 to 10 µM.

For the compound `Cn1cnc(C(=O)Nc2cccc(OCC(O)CN3CCc4ccccc4C3)c2)c1` (centres unmarked) [Compound D183], the IC50 lay within 1 to 10 µM.

For `Cn1cnc2ccc(-c3cccc(NCC(O)CN4CCc5ccccc5C4)n3)cc21` (centres unmarked) [Compound D117], the half-inhibitory concentration (IC50) is 0.101 to 1 µM.

For the compound `COC(=O)c1cncc(-c2cccc(OCC(O)CN3CCc4ccccc4C3)c2)c1` (centres unmarked) [Compound D180], the IC50 lay in the range of 1 to 10 µM.

Regarding `OC(COc1cccc(-c2ccc(C(F)(F)F)cc2Cl)c1)CN1CCc2ccccc2C1` (centres unmarked) [Compound D127], the IC50 is 0.101 to 1 µM.

As for `Cn1cnc2ccc(-c3cc(NCC(O)CN4CCc5ccccc5C4)ncn3)cc21` (centres unmarked) [Compound D207], the IC50 was 0.101 to 1 µM.

For the compound `O=C1COc2ccc(-c3cccc(OCC(O)CN4CCc5ccccc5C4)c3)cc2N1` (centres unmarked) [Compound D156], the IC50 lay within 0.101 to 1 µM.

Take `O=C(c1cccc(-c2cccc(OCC(O)CN3CCc4ccccc4C3)c2)c1)N1CCOCC1` (centres unmarked) [Compound D126]: the IC50 is 0.101 to 1 µM.

For the compound `CS(=O)(=O)c1ccccc1-c1cccc(OCC(O)CN2CCc3ccccc3C2)c1` (centres unmarked) [Compound D131], the IC50 was in the range of 0.101 to 1 µM.

As to `Cn1nccc1C(=O)Nc1cccc(OCC(O)CN2CCc3ccccc3C2)c1` (centres unmarked) [Compound D160], the IC50 was 1 to 10 µM.

On to `CN1CCN(c2ccc(-c3cccc(OCC(O)CN4CCc5ccccc5C4)c3)cn2)CC1` (centres unmarked) [Compound D149], for which the IC50 lay within 0.101 to 1 µM.

Regarding `CC(=O)c1ccc(-c2cccc(OCC(O)CN3CCc4ccccc4C3)c2)cc1` (centres unmarked) [Compound D137], the IC50 was 0.101 to 1 µM.

Turning to `CS(=O)(=O)Nc1ccc(-c2cccc(OCC(O)CN3CCc4ccccc4C3)c2)cc1` (centres unmarked) [Compound D129], the IC50 lay in the range of 0.101 to 1 µM.

As to `Cn1ccc2ccc(-c3cccc(OCC(O)CN4CCc5ccccc5C4)c3)nc21` (centres unmarked) [Compound D176], the IC50 was less than 0.1 µM.

Regarding `Cn1ncc2ccc(-c3cc(COCC(O)CN4CCc5ccccc5C4)on3)cc21` (centres unmarked) [Compound D136], the IC50 is 0.101 to 1 µM.

In the case of `CC(=O)Nc1cccc(-c2cccc(OCC(O)CN3CCc4ccccc4C3)c2)c1` (centres unmarked) [Compound D169], the IC50 lay in the range of 0.101 to 1 µM.

On to `COC(=O)c1cccc(-c2cccc(OCC(O)CN3CCc4ccccc4C3)c2)c1` (centres unmarked) [Compound D135], for which the IC50 lay within 0.101 to 1 µM.

As to `O=C(Nc1cccc(OCC(O)CN2CCc3ccccc3C2)c1)c1cncnc1` (centres unmarked) [Compound D161], the IC50 lay in the range of 1 to 10 µM.

For `OC(COc1cccc(-c2cc(OC(F)(F)F)ccc2Cl)c1)CN1CCc2ccccc2C1` (centres unmarked) [Compound D200], the IC50 was in the range of 0.101 to 1 µM.

On to `CNC(=O)c1cncc(-c2cccc(OCC(O)CN3CCc4ccccc4C3)c2)c1` (centres unmarked) [Compound D182], for which the half-inhibitory concentration (IC50) is 1 to 10 µM.

With `OC(COc1cccc(-c2ccc3ncn(C4CCOCC4)c3c2)c1)CN1CCc2ccccc2C1` (centres unmarked) [Compound D103], the IC50 was in the range of 0.101 to 1 µM.

On to `Cn1cnc2ccc(-c3cccc(NCC(O)CN4CCc5ccccc5C4)c3)cc21` (centres unmarked) [Compound D102], for which the 50% inhibitory concentration (IC50) was less than 0.1 µM.

Turning to `O=c1[nH]c2ccc(-c3cccc(OCC(O)CN4CCc5ccccc5C4)c3)cc2[nH]1` (centres unmarked) [Compound D109], the IC50 fell in the range of 0.101 to 1 µM.

As to `OC(COc1cccc(-c2ccccc2C(F)(F)F)c1)CN1CCc2ccccc2C1` (centres unmarked) [Compound D132], the IC50 lay within 0.101 to 1 µM.

`Cc1cn(C)c2cc(-c3cccc(OCC(O)CN4CCc5ccccc5C4)c3)ccc12` (centres unmarked) [Compound D187]: the IC50 is 0.101 to 1 µM.

As for `CC(C)(C)OCc1cccc(-c2cccc(OCC(O)CN3CCc4ccccc4C3)c2)c1` (centres unmarked) [Compound D150], the IC50 lay in the range of 0.101 to 1 µM.

For `CNC(=O)c1cccc(-c2cccc(OCC(O)CN3CCc4ccccc4C3)c2)c1` (centres unmarked) [Compound D186], the IC50 lay in the range of 0.101 to 1 µM.

On to `CN(C)c1ncc(-c2cccc(OCC(O)CN3CCc4ccccc4C3)c2)cn1` (centres unmarked) [Compound D125], for which the IC50 was 0.101 to 1 µM.

`Cn1cnc2ccc(-c3cncc(NCC(O)CN4CCc5ccccc5C4)c3)cc21` (centres unmarked) [Compound D199]: the IC50 was less than 0.1 µM.

As to `Cn1ncc2ccc(-c3cccc(OCC(O)CN4CCc5ccccc5C4)c3)cc21` (centres unmarked) [Compound D106], the IC50 was less than 0.1 µM.

Regarding `O=C(Nc1cccc(OCC(O)CN2CCc3ccccc3C2)c1)c1cnccn1` (centres unmarked) [Compound D145], the concentration for half-maximal inhibition (IC50) was in the range of 0.101 to 1 µM.

As to `NC(=O)c1ccc(-c2cccc(OCC(O)CN3CCc4ccccc4C3)c2)cc1` (centres unmarked) [Compound D152], the IC50 fell in the range of 0.101 to 1 µM.

On to `CC(C)Oc1ccc(F)c(-c2cccc(OCC(O)CN3CCc4ccccc4C3)c2)c1` (centres unmarked) [Compound D201], for which the IC50 lay within 0.101 to 1 µM.

With `NC(=O)c1cccc(-c2cccc(OCC(O)CN3CCc4ccccc4C3)c2)c1` (centres unmarked) [Compound D171], the IC50 lay within 0.101 to 1 µM.

On to `O=C(c1cccc(-c2cccc(OCC(O)CN3CCc4ccccc4C3)c2)c1)N1CCCC1` (centres unmarked) [Compound D185], for which the IC50 lay within 0.101 to 1 µM.

With `OC(COc1cccc(-c2ccc3ncn(-c4ccccc4)c3c2)c1)CN1CCc2ccccc2C1` (centres unmarked) [Compound D104], the IC50 lay within 0.101 to 1 µM.

With `Cn1cnc2ccc(-c3cccc(OCC(O)CN4CCc5ccccc5C4)c3)nc21` (centres unmarked) [Compound D189], the IC50 was less than 0.1 µM.

As for `COc1ccc(Cl)cc1-c1cccc(OCC(O)CN2CCc3ccccc3C2)c1` (centres unmarked) [Compound D134], the IC50 lay in the range of 0.101 to 1 µM.

Regarding `Cn1cnc2ccc(-c3cncc(NCC(O)CN4CCc5ccccc5C4)n3)cc21` (centres unmarked) [Compound D121], the IC50 is 0.101 to 1 µM.

The record behind these values is patent publication US20150344457A1, “METHODS OF INHIBITING PRMT5” (EPIZYME, INC., priority 2012, published 2015).
